Laboratory results reported in patent US4031077A, “Antibacterial 3-phosphono penams” (priority 1976, dated 1977).
Where “and” joins values, the source holds several entries; their conditions need not be identical. Equal entries are not always repeated. Structures can show the parent of a compound that is named as a salt. Where two headings read alike, the source gives them in different places.

Tests used:
[1] = test system: Staph. aureus; type: cell-based, Staphlococcus aureus
[2] = test system: Strep. equi.; assay: microbe, parasite or virus in culture; type: cell-based, Streptococcus equis; settings: 10^5-10^6 cells, 37° C., anaerobic, sodium salt, Test No. 1-2
[3] = test system: Strep. zoo.; type: cell-based, Streptococcus zoobacter; settings: Strep. zoo. strain 02H001, brain-heart infusion agar, 10^5-10^6 cells, 37° C., anaerobic, sodium salt, Test No. 1-3

Compound	MIC (minimal inhibitory concentration) ([1]; Staph. aureus strain 01A006; brain-heart infusion agar, 10^5-10^6 cells, 37° C., anaerobic; sodium salt; Test No. 1-3)	MIC ([2]; Streptococcus equi, Strep. equi. strain 02I001, brain-heart infusion agar, read-out: MIC (minimal inhibitory concentration))	MIC (minimal inhibitory concentration) ([1]; Staph. aureus strain 01A005, brain-heart infusion agar, 10^5-10^6 cells, 37° C., anaerobic, sodium salt, Test No. 1-3)	MIC (minimal inhibitory concentration) ([1]; Staph. aureus strain 01A006, brain-heart infusion agar, 10^5-10^6 cells, 37° C., anaerobic, sodium salt, Test No. 1-3)	MIC (minimal inhibitory concentration) ([2]; Strep. equi. strain 02I001, brain-heart infusion agar)	MIC (minimal inhibitory concentration) [3]
COP(=O)(O)C1N2C(=O)C(NC(=O)COc3ccccc3)C2SC1(C)C (stereo not drawn) [6-(2-Phenoxyacetamido)-2,2-dimethyl-3-(0-methylphosphono)penam, sodium salt]	200 µg/mL	200 µg/mL				
CC1(C)S[C@@H]2C(NC(=O)COc3ccccc3)C(=O)N2C1P(=O)(O)O.[Na] (stereo partly drawn) [6-(2-Phenoxyacetamido)-2,2-dimethyl-3-phosphonopenam, sodium salt]			> 200 µg/mL	> 200 µg/mL	100 µg/mL	100 µg/mL and 200 µg/mL
